Results reported in ChEMBL document CHEMBL1201862, “PubChem BioAssay data set” (2004).
Activity calls are given as the source filed them.

Experiments:
[1] = microbe, parasite or virus in culture; type: functional; settings: Mycobacterium tuberculosis
[2] = target: Heat shock protein HSP 90-alpha (Homo sapiens, UniProt P07900); type: functional, organism-based
[3] = target: T1, Fatty acid synthase (Homo sapiens, UniProt P49327); test: inhibition of human FAS-TE enzyme activity – biochemical, kinetic fluorescence intensity, dose response (AID 624326); type: functional;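 further: rate of fluorescence rise from hydrolysis of a fluorogenic O-methyl fluorescein ester substrate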
[4] = target: T1, Fatty acid synthase; test: inhibition of human FAS-TE enzyme activity – biochemical, endpoint fluorescence intensity, uHTS hits, dose response (AID 624327); type: functional;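 further: fluorescence from hydrolysis of an O-methyl fluorescein acyl ester substrate by the enzyme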
[5] = Trypanosoma cruzi growth suppression in host cells – NIH3T3 host cells, beta-gal luminescence, confirmation (AID 2044); type: functional, cell-based;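 further: intracellular parasites grown in NIH/3T3 mouse fibroblasts as host cells; luminescent beta-galactosidase reporter signal from transgenic T. cruzi replicating inside host cells; inhibitors lower the luminescence signal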
[6] = target: T2, Heat shock factor protein 1 (Mus musculus, UniProt P38532); test: enhancement of HSF1-driven luciferase signal – cell-based, NIH3T3, luminescence, dose retest, confirmation (AID 435004); type: functional;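 further: stress induced by proteasome inhibitor MG132 added 30 min after compound; luciferase reporter driven by HSF1 response element in NIH3T3 cells; actives raise luminescence as potentiators of the MG132 stress response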
T2 sequence (P38532 whole entry): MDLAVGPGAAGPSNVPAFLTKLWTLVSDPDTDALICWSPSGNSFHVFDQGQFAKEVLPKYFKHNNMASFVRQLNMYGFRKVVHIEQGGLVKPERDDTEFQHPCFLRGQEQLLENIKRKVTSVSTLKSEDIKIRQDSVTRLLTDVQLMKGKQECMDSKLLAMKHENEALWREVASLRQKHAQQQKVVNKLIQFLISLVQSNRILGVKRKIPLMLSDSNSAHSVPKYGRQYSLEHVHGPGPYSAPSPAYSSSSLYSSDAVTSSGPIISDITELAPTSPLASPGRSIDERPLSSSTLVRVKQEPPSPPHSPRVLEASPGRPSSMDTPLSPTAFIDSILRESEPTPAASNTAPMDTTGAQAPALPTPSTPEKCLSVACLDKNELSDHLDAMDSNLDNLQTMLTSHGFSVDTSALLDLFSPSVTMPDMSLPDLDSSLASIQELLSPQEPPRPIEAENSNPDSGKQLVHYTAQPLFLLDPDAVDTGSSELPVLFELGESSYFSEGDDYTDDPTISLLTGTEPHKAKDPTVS

[7] = NIH3T3 cell viability loss – ATP luminescence, mouse fibroblasts, counter-screen, dose response (AID 2010); type: functional, cell-based;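 further: cells exposed to compound for about 90 hours before reading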
[8] = target: Cytochrome P450 3A4 (Homo sapiens, UniProt P08684);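 further: CYP3A4 tested as one member of a cytochrome P450 panel screen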
[9] = Luminescence Cell-Based Dose Response HTS to Identify Inhibitors of 5'UTR Stem-Loop Driven Prion Protein mRNA Translation in H4 Neuroglioblastoma Cells. [Related pubchem assays: 1827 (Project Summary), 1813 (Primary HTS)]; type: functional
[10] = luciferase reporter signal suppression in cells – H4 neuroglioma cells, luminescence, dose response (AID 1990); type: functional, cell-based
[11] = alpha-synuclein stem-loop luciferase translation blockers – H4 neuroglioma cells, luminescence, confirmation (AID 1988); type: functional, cell-based
[12] = target: T3, Streptokinase A (Streptococcus pyogenes serotype M1, UniProt P10520); test: viability-normalized secreted streptokinase activity reduction – plasminogen activation absorbance, OD405, dose response (AID 1914); type: functional, Streptococcus pyogenes M1 GAS;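 further: secreted streptokinase activity via plasminogen activation per viability signal from cell pellet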
T3 sequence (P10520 whole entry): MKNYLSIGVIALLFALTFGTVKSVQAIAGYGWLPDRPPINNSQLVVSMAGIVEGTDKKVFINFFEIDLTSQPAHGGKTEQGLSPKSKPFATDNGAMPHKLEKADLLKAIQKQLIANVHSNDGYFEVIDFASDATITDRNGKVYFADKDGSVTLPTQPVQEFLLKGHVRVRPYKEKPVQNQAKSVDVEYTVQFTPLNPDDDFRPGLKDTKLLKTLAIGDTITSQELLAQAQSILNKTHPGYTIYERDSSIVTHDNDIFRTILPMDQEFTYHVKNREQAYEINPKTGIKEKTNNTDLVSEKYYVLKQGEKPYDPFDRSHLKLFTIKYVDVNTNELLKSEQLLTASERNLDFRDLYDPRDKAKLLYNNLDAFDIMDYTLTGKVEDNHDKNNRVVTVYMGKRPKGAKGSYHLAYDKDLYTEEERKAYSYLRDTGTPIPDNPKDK

[13] = test system: Streptococcus; test: GAS UMAA2166 growth inhibition – luminescence, BacTiterGlo, counter-screen for streptokinase expression inhibitor project, dose response (AID 1915); type: functional, organism-based;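 further: potency for reduction of bacterial viability or growth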
[14] = test system: Streptococcus sp. 'group A'; test: Streptococcus pyogenes SK(-)GAS viability under kanamycin – luminescence, BacTiterGlo, confirmation, counter-screen for streptokinase expression inhibitor project, dose response (AID 1900); type: functional, organism-based
[15] = test system: INS1; test: INS-1E survival protection against cytokine death – cell-based, luminescence, retest, dose response (AID 449756); type: functional; settings: Rattus norvegicus;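 further: cell death triggered by IL-1 beta plus TNF-alpha plus IFN-gamma mixture; protective hits raise ATP signal compared with cytokine alone wells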
[16] = target: T4, Calpain-2 catalytic subunit (Sus scrofa, UniProt P43367); test: m-calpain protease blockers, concentration series – biochemical, fluorogenic peptide substrate, dose response (AID 1420); type: functional
T4 sequence (P43367 whole entry): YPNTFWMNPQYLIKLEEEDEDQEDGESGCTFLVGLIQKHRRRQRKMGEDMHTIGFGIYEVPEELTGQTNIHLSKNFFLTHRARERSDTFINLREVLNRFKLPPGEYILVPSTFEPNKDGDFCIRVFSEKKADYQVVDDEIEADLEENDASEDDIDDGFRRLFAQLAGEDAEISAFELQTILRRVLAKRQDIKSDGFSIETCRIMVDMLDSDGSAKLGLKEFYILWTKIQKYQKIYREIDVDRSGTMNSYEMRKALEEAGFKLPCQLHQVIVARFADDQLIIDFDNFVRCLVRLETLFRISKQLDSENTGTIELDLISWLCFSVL

[17] = target: T5, High affinity choline transporter 1 (Homo sapiens, UniProt Q9GZV3); test: human choline transporter blockers, potency – cell-based, 5-point CRC, membrane potential dye, dose response (AID 504840); type: functional
T5 sequence (Q9GZV3 whole entry): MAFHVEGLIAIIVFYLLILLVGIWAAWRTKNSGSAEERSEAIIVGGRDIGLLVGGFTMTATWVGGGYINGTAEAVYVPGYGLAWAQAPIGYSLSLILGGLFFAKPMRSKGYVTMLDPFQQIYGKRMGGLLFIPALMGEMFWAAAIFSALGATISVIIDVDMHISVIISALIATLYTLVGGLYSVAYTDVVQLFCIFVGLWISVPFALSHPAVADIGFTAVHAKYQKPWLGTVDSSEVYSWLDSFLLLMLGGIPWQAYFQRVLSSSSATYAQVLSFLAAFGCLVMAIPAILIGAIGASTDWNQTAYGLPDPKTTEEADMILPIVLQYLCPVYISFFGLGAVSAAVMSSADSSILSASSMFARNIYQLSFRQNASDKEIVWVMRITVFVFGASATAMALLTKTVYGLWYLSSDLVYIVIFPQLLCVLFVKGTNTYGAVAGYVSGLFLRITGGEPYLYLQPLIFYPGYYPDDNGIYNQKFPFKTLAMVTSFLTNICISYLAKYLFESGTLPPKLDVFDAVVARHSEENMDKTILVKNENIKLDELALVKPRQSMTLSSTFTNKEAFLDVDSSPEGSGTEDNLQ

[18] = target: T6, Carboxy-terminal domain RNA polymerase II polypeptide A small phosphatase 1 (Homo sapiens, UniProt Q9GZU7); test: CTDSP1 inhibitors, concentration-response, biochemical, absorbance readout, ultra-high-throughput screen actives (AID 540297); type: functional
T6 sequence (Q9GZU7 whole entry): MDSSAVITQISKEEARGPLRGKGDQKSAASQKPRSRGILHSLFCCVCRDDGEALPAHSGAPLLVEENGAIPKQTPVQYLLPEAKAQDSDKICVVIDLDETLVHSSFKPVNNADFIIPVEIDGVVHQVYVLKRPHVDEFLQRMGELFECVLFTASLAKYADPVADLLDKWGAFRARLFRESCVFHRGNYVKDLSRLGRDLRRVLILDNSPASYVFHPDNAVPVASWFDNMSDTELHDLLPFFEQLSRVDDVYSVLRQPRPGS

[19] = blockers of HIV-1 envelope-mediated cell-cell fusion – cherry-pick, dose response (AID 652057); type: functional, cell-based
[20] = HIV-1 AD8 envelope cell-cell fusion blockers – cherry-pick, dose response (AID 652062); type: functional, cell-based;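 further: luciferase signal from cell-cell fusion driven by HIV-1 clade B AD8 Env; potency is for inhibitors of fusion seen as a drop in luminescence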
[21] = growth inhibition of yeast DHODH-expressing 3D7 parasites – SYBR Green, dry powder samples, dose response (AID 1159570); type: functional, cell-based;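 further: parasite growth measured after 72 hours of compound exposure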
[22] = P. falciparum Dd2 growth inhibitors, dose response, SYBR Green, cherry-picked samples (AID 1159567); type: functional, cell-based
[23] = Dd2 malaria parasite growth inhibition potency – SYBR Green, dry powder samples, dose response (AID 1159566); type: functional, cell-based;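 further: potency for growth inhibition with lower SYBR green DNA signal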
[24] = growth inhibition of PfATP4-mutant resistant parasites – NITD609-resistant line, SYBR Green, dry powder, dose response (AID 1159571); type: functional, cell-based;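 further: parasites synchronized at ring stage by sorbitol before testing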

T1 sequence (P49327 whole entry): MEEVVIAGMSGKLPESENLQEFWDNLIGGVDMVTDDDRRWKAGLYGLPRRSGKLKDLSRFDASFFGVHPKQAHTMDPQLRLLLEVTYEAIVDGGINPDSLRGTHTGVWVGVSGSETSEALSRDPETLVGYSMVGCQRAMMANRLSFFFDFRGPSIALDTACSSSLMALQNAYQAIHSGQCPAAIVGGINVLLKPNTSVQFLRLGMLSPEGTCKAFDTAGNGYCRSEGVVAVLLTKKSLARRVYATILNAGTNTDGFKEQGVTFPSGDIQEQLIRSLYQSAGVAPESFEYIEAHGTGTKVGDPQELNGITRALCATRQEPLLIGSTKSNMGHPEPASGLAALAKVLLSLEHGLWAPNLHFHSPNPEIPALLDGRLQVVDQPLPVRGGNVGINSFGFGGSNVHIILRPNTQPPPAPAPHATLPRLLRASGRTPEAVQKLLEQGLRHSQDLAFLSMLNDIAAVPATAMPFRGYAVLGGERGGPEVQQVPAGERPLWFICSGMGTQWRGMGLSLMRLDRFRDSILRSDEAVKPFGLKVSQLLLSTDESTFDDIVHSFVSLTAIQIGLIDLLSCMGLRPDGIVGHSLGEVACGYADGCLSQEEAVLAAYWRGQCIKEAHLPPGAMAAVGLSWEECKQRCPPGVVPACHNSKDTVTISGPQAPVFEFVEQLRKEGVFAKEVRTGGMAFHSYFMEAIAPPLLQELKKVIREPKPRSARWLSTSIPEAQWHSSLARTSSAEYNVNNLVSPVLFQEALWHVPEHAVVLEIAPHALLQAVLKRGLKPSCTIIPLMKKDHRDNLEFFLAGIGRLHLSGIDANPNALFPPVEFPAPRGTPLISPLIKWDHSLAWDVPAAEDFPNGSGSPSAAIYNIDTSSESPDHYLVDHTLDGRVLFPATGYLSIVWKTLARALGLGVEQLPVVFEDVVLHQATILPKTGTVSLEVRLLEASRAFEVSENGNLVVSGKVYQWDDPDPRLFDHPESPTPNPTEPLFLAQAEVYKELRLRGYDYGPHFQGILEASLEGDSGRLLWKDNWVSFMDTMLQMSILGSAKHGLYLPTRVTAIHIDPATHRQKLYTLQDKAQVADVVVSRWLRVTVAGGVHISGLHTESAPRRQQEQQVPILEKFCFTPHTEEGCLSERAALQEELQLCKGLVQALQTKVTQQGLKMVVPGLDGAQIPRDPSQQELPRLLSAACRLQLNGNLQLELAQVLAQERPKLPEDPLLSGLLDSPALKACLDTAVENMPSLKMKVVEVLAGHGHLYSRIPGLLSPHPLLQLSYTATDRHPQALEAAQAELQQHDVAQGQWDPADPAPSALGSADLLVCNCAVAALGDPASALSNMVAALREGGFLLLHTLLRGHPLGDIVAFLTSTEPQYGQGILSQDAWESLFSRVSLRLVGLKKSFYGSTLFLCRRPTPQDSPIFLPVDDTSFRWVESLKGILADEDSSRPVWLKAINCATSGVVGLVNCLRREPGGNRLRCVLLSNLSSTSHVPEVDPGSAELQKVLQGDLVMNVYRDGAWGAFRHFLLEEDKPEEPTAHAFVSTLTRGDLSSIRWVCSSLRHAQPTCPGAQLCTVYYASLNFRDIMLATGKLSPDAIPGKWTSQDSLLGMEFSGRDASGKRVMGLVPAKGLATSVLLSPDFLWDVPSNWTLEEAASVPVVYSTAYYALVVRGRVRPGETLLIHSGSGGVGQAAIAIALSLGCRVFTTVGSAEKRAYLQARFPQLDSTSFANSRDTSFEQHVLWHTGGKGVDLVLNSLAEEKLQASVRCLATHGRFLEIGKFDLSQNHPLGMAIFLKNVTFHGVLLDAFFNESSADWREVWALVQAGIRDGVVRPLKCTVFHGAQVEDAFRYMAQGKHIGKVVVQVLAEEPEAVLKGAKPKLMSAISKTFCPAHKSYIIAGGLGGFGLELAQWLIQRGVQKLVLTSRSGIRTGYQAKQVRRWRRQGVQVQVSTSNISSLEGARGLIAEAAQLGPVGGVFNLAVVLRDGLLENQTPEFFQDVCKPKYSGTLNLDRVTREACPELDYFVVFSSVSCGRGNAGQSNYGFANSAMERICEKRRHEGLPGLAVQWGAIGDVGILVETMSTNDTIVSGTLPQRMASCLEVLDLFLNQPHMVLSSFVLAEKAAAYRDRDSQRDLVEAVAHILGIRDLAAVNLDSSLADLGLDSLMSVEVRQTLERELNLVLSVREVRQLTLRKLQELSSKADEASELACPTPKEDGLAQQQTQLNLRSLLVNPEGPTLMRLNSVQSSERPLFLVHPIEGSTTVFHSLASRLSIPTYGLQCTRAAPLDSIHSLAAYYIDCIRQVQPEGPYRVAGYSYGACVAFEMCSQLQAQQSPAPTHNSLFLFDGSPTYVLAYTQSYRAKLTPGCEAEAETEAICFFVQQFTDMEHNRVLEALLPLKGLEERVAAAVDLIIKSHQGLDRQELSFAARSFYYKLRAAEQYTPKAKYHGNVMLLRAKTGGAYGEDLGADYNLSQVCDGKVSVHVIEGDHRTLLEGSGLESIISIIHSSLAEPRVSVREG
Chain of Cytochrome P450 3A4 (P08684 whole entry): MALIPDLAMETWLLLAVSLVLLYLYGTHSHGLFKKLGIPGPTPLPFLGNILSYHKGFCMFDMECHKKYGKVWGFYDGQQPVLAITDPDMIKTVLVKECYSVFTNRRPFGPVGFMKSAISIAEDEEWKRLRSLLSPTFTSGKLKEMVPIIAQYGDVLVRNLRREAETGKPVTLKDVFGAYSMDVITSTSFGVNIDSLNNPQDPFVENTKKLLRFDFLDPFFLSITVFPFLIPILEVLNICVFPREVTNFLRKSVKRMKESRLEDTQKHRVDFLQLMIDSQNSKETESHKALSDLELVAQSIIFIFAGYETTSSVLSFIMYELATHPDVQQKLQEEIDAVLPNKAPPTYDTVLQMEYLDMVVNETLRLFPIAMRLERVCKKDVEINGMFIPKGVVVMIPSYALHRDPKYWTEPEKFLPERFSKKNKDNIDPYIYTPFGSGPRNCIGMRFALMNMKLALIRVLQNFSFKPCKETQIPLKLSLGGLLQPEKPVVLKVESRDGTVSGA

With `COCCn1c(-c2ccc(OC(F)(F)C(F)C(F)(F)F)cc2)nc2c1c(=O)[nH]c(=O)n2CC(C)C` (configuration not stated) the CC50 [1] was > 40 µM (active).

In the case of `CCn1c(CNc2ccc(Cl)cc2)nnc1SCc1ccc(C)cc1`, the AC50 [2] is reported as 8.07 µM (active).

For `Cc1ccc(N2C(=O)C3CC(c4ccccc4)=C4C5C=CC(C6C(=O)N(c7ccc(C)cc7C)C(=O)C56)C4C3C2=O)c(C)c1` (configuration not stated), the IC50 [3] was 10.3 µM (active), the IC50 [4] was 17.4 µM (active) and the EC50 [5] was 2.49 µM (active). The EC50 [6] was > 260 µM (inactive) and the EC50 [7] was > 60 µM (not active).

For `Cc1cc(-c2cc(-c3ccc(Cl)cc3)nc(N)c2C#N)co1`, the AC50 [8] was 17.8 µM (inconclusive), the EC50 [9] was > 120 µM (not active) and the EC50 [10] was 20.9 µM (active). The AC50 [2] was 6.87 µM (active) and the EC50 [11] was > 120 µM (not active).

With `Cc1ccc(Cn2c(C(CO)Nc3nc(-c4ccc(F)cc4)cs3)nc3ccccc32)cc1` (configuration not stated) the EC50 [12] was > 150 µM (not active), the CC50 [1] was 28.5 µM (active) and the EC50 [13] was 5.23 µM (active). The EC50 [14] was 5.27 µM (active).

In the case of `O=C(NNc1c(Cl)cc(Cl)cc1Cl)c1cccc([N+](=O)[O-])c1`, the AC50 [15] is reported as 3.93 µM (active), the IC50 [3] is reported as 6.77 µM (active) and the IC50 [4] is reported as 10.7 µM (active).

In the case of `COc1ccc(C(=O)N2CCN(c3ncnc4c(-c5ccccc5)nsc34)CC2)cc1`, the IC50 [16] is reported as 4.3 µM (not active).

For `C/C(=N\NC(=N)N)c1ccccc1`, the IC50 [17] was 13.5 µM (active).

For `CCOc1ccccc1C(O)C1=CC(=O)c2ccccc2C1=O` (configuration not stated), the IC50 [18] was 4.16 µM (active).

With `CC(=O)N(C)c1ccc(OCC(O)CN(c2ccccc2C)S(=O)(=O)c2ccc(C)cc2)cc1` (configuration not stated) the IC50 [17] was 11.8 µM (active).

With `C[C@H]1CN([C@@H](C)CO)C(=O)c2cc(NC(=O)Nc3ccc4c(c3)OCO4)ccc2O[C@H]1CN(C)S(=O)(=O)c1ccc(F)cc1` the AC50 [19] was 15.2 µM (active) and the AC50 [20] was 39 µM (active).

For `O=C(CC(=O)N/N=C\c1ccc([N+](=O)[O-])cc1)NCCc1ccccc1`, the IC50 [3] was 20.3 µM (inactive) and the IC50 [4] was 23.6 µM (inactive).

With `Cc1cc(/C=N/NC(=O)C(=O)NCc2ccccn2)c(C)n1-c1cccc(Br)c1` the IC50 [16] was < 0.4 µM (not active).

For `CC(C)NC(=O)Nc1ccc2c(c1)C(=O)N(C)[C@H]1CC[C@H](CC(=O)Nc3ccccc3)O[C@H]1CO2`, the AC50 [21] was 1.23 µM (active), the AC50 [22] was 1.25 µM (active) and the AC50 [23] was 1.26 µM (active). For the same molecule, the AC50 [24] was 1.23 µM (active).
